Data on two compounds can be found in US12077503B2, “Substituted cyclic amides and their use as herbicides” (FMC CORPORATION, priority 2015, dated 2024).

Common to all, as to type: in vivo
The test system of test [1] is giant foxtail (Setaria faberii). The test is described as follows: Test A preemergence. Particulars: Setaria faberi, pre-emergence, 240 h; for pest or weed control at 125 g/ha: 125 g ai/ha, preemergence, visual rating after approx. 10 d, 0 to 100 scale where 0 is no effect and 100 is complete control. In short, it runs like this:
(§1)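 Seeds sprayed preemergence with a directed soil spray, or plants at 2 to 10 cm height and one- to two-leaf stage sprayed postemergence, with test chemicals in a non-phytotoxic solvent mixture containing surfactant, in loam soil–sand blend. Injury rated visually against untreated controls after about 10 d in greenhouse, 0 (no effect) to 100 (complete control).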

Test [2] has as its system barnyardgrass (Echinochloa crus-galli). Nature of the test: Test A preemergence. Particulars: Echinochloa crus-galli, pre-emergence, 240 h; for pest or weed control at 125 g/ha: 125 g ai/ha, preemergence, visual rating after approx. 10 d, 0 to 100 scale where 0 is no effect and 100 is complete control. In short, it runs like this: as §1
A further test concerns Kochia (Kochia scoparia). The test is described as follows: Test A preemergence. Particulars: Bassia scoparia, pre-emergence, 240 h; for pest or weed control at 125 g/ha: 125 g ai/ha, preemergence, visual rating after approx. 10 d, 0 to 100 scale where 0 is no effect and 100 is complete control. In short, it runs like this:
as §1

Test [3] concerns ryegrass, Italian (Italian ryegrass, Lolium multiflorum). The test is described as follows: Test A preemergence. Conditions: Lolium multiflorum, pre-emergence, 240 h; for pest or weed control at 125 g/ha: 125 g ai/ha, preemergence, visual rating after approx. 10 d, 0 to 100 scale where 0 is no effect and 100 is complete control. The essentials:
as §1

In test [4] the test system is ragweed (common ragweed, Ambrosia elatior). Nature of the test: Test A preemergence. Particulars: Ambrosia artemisiifolia, pre-emergence, 240 h; for pest or weed control at 125 g/ha: 125 g ai/ha, preemergence, visual rating after approx. 10 d, 0 to 100 scale where 0 is no effect and 100 is complete control. The essentials:
as §1

Test [5] relates to pigweed (Amaranthus retroflexus). Nature of the test: Test A preemergence. Particulars: Amaranthus retroflexus, pre-emergence, 240 h; for pest or weed control at 125 g/ha: 125 g ai/ha, preemergence, visual rating after approx. 10 d, 0 to 100 scale where 0 is no effect and 100 is complete control.
The test system of test [6] is barnyardgrass (Echinochloa crus-galli). The test is described as follows: Test B flooded paddy test. Conditions: Echinochloa crus-galli, Flood, 250 g ai/ha; scale of 0 to 100 where 0 is no effect and 100 is complete control; read-out: Barnyardgrass plant response rating. In short, it runs like this:
(§2)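 Greenhouse paddy pots with 2-leaf stage plants received compound by direct addition to floodwater 3 cm deep, kept at that level. Scored visually at 13–15 d versus controls (0 no effect; 100 complete control).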

The subject of test [7] is ducksalad (Heteranthera limosa). The test is described as follows: Test B flooded paddy test. Conditions: Heteranthera limosa, Flood, 250 g ai/ha; scale of 0 to 100 where 0 is no effect and 100 is complete control; read-out: Ducksalad plant response rating. The essentials:
as §2

The subject of the next test is rice (Oryra sativa). The test is described as follows: Test B flooded paddy test. Particulars: Oryza sativa, Flood, 250 g ai/ha; scale of 0 to 100 where 0 is no effect and 100 is complete control; read-out: Rice plant response rating. The essentials:
as §2

Test [8] deals with sedge, umbrella (small-flower umbrella sedge, Cyperus difformis). The test is described as follows: Test B flooded paddy test. Conditions: Cyperus difformis, Flood, 250 g ai/ha; scale of 0 to 100 where 0 is no effect and 100 is complete control; read-out: Sedge, Umbrella plant response rating. In short, it runs like this: as §2
The test system of test [9] is giant foxtail (Setaria faberii). The test is described as follows: Test A postemergence. Particulars: Setaria faberi, post-emergence, 240 h; for pest or weed control at 125 g/ha: 125 g ai/ha, postemergence. The essentials: as §1
For test [10], the system named is barnyardgrass (Echinochloa crus-galli). Nature of the test: Test A postemergence. Conditions: Echinochloa crus-galli, post-emergence, 240 h; for pest or weed control at 125 g/ha: 125 g ai/ha, postemergence. In short, it runs like this: as §1
For test [11], the system named is ryegrass, Italian (Italian ryegrass, Lolium multiflorum). Nature of the test: Test A postemergence. Conditions: Lolium multiflorum, post-emergence, 240 h; for pest or weed control at 125 g/ha: 125 g ai/ha, postemergence. The essentials:
as §1

The test system of test [12] is pigweed (Amaranthus retroflexus). The test is described as follows: Test A postemergence. Particulars: Amaranthus retroflexus, post-emergence, 240 h; for pest or weed control at 125 g/ha: 125 g ai/ha, postemergence. The essentials: as §1
Where [13] appears, read: read-out: Plant response rating, Foxtail, Giant.
The mark [14] stands for this setting: read-out: Plant response rating, Barnyardgrass.
Setting [15] is: read-out: Plant response rating, Kochia.
The mark [16] stands for this setting: read-out: Plant response rating, Ryegrass, Italian.
The mark [17] stands for this setting: read-out: Plant response rating, Ragweed.
[18] abbreviates: read-out: Plant response rating, Pigweed.

With `CC(F)(F)c1cccc([C@H]2CNC(=O)[C@@H]2C(=O)Nc2cccc(F)c2F)c1` [Compound 779], the pest or weed control at 125 g/ha worked out at 90% in test [1] (setting [13]); 90% in test [2] (setting [14]); 70% in the test on Kochia (Kochia scoparia) (setting [15]); 40% in test [3] (setting [16]); 20% in test [4] (setting [17]); 40% in test [5] (setting [18]). Further, the pest or weed control at 125 g/ha in [9] (visual injury after approximately 10 d, 0 to 100 scale (0 no effect, 100 complete control), read-out: Plant response rating, Foxtail, Giant) worked out at 80%; in [10] (visual injury after approximately 10 d, 0 to 100 scale (0 no effect, 100 complete control), read-out: Plant response rating, Barnyardgrass) it was 90%; in test [11] (visual injury after approximately 10 d, 0 to 100 scale (0 no effect, 100 complete control), read-out: Plant response rating, Ryegrass, Italian) it was 40%; in test [12] (visual injury after approximately 10 d, 0 to 100 scale (0 no effect, 100 complete control), read-out: Plant response rating, Pigweed), 0%. For the same compound, the pest or weed control at 500 g/ha amounted to 90% in test [1] (500 g ai/ha, Preemergence, visual injury vs untreated controls after approximately 10 d, read-out: Foxtail, Giant plant response rating (0 to 100 scale where 0 is no effect and 100 is complete control)); 90% in test [2] (500 g ai/ha, Preemergence, visual injury vs untreated controls after approximately 10 d, read-out: Barnyardgrass plant response rating (0 to 100 scale where 0 is no effect and 100 is complete control)); 80% in the test with Kochia (Kochia scoparia) (500 g ai/ha, Preemergence, visual injury vs untreated controls after approximately 10 d, read-out: Kochia plant response rating (0 to 100 scale where 0 is no effect and 100 is complete control)); 40% in test [3] (500 g ai/ha, Preemergence, visual injury vs untreated controls after approximately 10 d, read-out: Ryegrass, Italian plant response rating (0 to 100 scale where 0 is no effect and 100 is complete control)); 70% in test [4] (500 g ai/ha, Preemergence, visual injury vs untreated controls after approximately 10 d, read-out: Ragweed plant response rating (0 to 100 scale where 0 is no effect and 100 is complete control)); 60% in test [5] (500 g ai/ha, Preemergence, visual injury vs untreated controls after approximately 10 d, read-out: Pigweed plant response rating (0 to 100 scale where 0 is no effect and 100 is complete control)). Moreover, the pest or weed control at 250 g/ha in [6] worked out at 60%; in [7] it was 100%; in the test on rice (Oryra sativa), 0%; in test [8] it was 0%.

As to `CN1CC[C@H](c2cccc(OC(F)(F)F)c2)[C@@H](C(=O)Nc2cccc(F)c2F)C1=O` [Compound 807], the pest or weed control at 125 g/ha in test [1] (setting [13]) worked out at 100%; in test [2] (setting [14]), 100%; in the test with Kochia (Kochia scoparia) (setting [15]) it was 50%; in [3] (setting [16]), 70%; in test [4] (setting [17]) it was 0%; in test [5] (setting [18]), 40%. In addition, the pest or weed control at 125 g/ha was 80% in [9] (visual injury rating after approximately 10 d, read-out: Foxtail, Giant plant response rating (0 to 100 scale, 0 no effect, 100 complete control)); 80% in [10] (visual injury rating after approximately 10 d, read-out: Barnyardgrass plant response rating (0 to 100 scale, 0 no effect, 100 complete control)); 0% in [11] (visual injury rating after approximately 10 d, read-out: Ryegrass, Italian plant response rating (0 to 100 scale, 0 no effect, 100 complete control)); 0% in test [12] (visual injury rating after approximately 10 d, read-out: Pigweed plant response rating (0 to 100 scale, 0 no effect, 100 complete control)). Also, the pest or weed control at 31 g/ha in [1] (Preemergence, 31 g ai/ha, 0 to 100 scale (0 no effect, 100 complete control), read-out: Plant response rating, Foxtail, Giant) stood at 100%; in test [2] (Preemergence, 31 g ai/ha, 0 to 100 scale (0 no effect, 100 complete control), read-out: Plant response rating, Barnyardgrass), 100%; in the test on Kochia (Kochia scoparia) (Preemergence, 31 g ai/ha, 0 to 100 scale (0 no effect, 100 complete control), read-out: Plant response rating, Kochia), 0%; in [3] (Preemergence, 31 g ai/ha, 0 to 100 scale (0 no effect, 100 complete control), read-out: Plant response rating, Ryegrass, Italian) it was 20%; in test [4] (Preemergence, 31 g ai/ha, 0 to 100 scale (0 no effect, 100 complete control), read-out: Plant response rating, Ragweed), 0%; in test [5] (Preemergence, 31 g ai/ha, 0 to 100 scale (0 no effect, 100 complete control), read-out: Plant response rating, Pigweed), 0%. The pest or weed control at 31 g/ha in test [9] (Postemergence, 31 g ai/ha, visual injury after approx. 10 d, 0 to 100 scale, 0 no effect, 100 complete control, read-out: Plant response rating, Foxtail, Giant) was 70%; in test [10] (Postemergence, 31 g ai/ha, visual injury after approx. 10 d, 0 to 100 scale, 0 no effect, 100 complete control, read-out: Plant response rating, Barnyardgrass), 70%; in test [11] (Postemergence, 31 g ai/ha, visual injury after approx. 10 d, 0 to 100 scale, 0 no effect, 100 complete control, read-out: Plant response rating, Ryegrass, Italian), 0%; in test [12] (Postemergence, 31 g ai/ha, visual injury after approx. 10 d, 0 to 100 scale, 0 no effect, 100 complete control, read-out: Plant response rating, Pigweed) it was 0%. The pest or weed control at 250 g/ha stood at 95% in [6], 100% in [7], 0% in the test on rice (Oryra sativa) and 0% in test [8].
